Holding throughout (format): functional
What all share (parameters): scale not given: the % may be the effect or the level left

Assay [1] in a line: Antioxidant activity assessed as inhibition of xanthine-xanthine oxidase generated superoxide anion radical production assessed as formazone formation at 100 ug/ml after 30 mins by spectrophotometric analysis.
Assay [2] is described as follows: Antioxidant activity assessed as inhibition non-enzymatic reactants generated hydroxyl radical production at 100 ug/ml after 90 mins by spectrophotometry.
Assay [3] can be described thus: Antioxidant activity assessed as inhibition microsomal lipid peroxidation assessed as malondialdehyde formation at 100 ug/ml by thiobarbituric acid test. To be noted: Microsome.
The nature of assay [4]: Antioxidant activity assessed as inhibition of xanthine-xanthine oxidase generated superoxide anion radical production assessed as formazone formation at 20 ug/ml after 30 mins by spectrophotometric analysis.
For assay [5], the system named is Rattus norvegicus. The experiment in a line: Antihyperlipidemic activity in Charles Foster rat assessed as reduction of triton WR-1339-induced plasma triglyceride level at 100 mg/kg, po after 18 hrs by spectrophotometric analysis.
The subject of assay [6] is Rattus norvegicus. The experiment in a line: Antihyperlipidemic activity in Charles Foster rat assessed as reduction of triton WR-1339-induced plasma post heparin lipolytic activity at 100 mg/kg, po after 18 hrs by spectrophotometric analysis.
In assay [7] the test system is Rattus norvegicus. The experiment in a line: Antihyperlipidemic activity in Charles Foster rat assessed as reduction of triton WR-1339-induced plasma total cholesterol level at 100 mg/kg, po after 18 hrs by spectrophotometric analysis.
Assay [8] has as its system Rattus norvegicus. The experiment in a line: Antihyperlipidemic activity in Charles Foster rat assessed as reduction of triton WR-1339-induced plasma phospholipid level at 100 mg/kg, po after 18 hrs by spectrophotometric analysis.
The nature of assay [9]: Antioxidant activity assessed as inhibition non-enzymatic reactants generated hydroxyl radical production at 20 ug/ml after 90 mins by spectrophotometry.
Assay [10] concerns Rattus norvegicus. The experiment in a line: Antihyperlipidemic activity in Charles Foster rat assessed as reduction of triton WR-1339-induced plasma phospholipid level at 25 mg/kg, po after 18 hrs by spectrophotometric analysis.
In assay [11] the test system is Rattus norvegicus. The experiment in a line: Antihyperlipidemic activity in Charles Foster rat assessed as reduction of triton WR-1339-induced plasma triglyceride level at 25 mg/kg, po after 18 hrs by spectrophotometric analysis.
Assay [12] deals with Rattus norvegicus. The experiment in a line: Antihyperlipidemic activity in Charles Foster rat assessed as reduction of triton WR-1339-induced plasma total cholesterol level at 25 mg/kg, po after 18 hrs by spectrophotometric analysis.
Assay [13] in a line: Antioxidant activity assessed as inhibition microsomal lipid peroxidation assessed as malondialdehyde formation at 20 ug/ml by thiobarbituric acid test. To be noted: Microsome.

SMILES strings stand for the structures.

On to `CCOC(=O)COc1cccc2c1ccc1c(C)cc(=O)oc12`, for which the Activity in assay [1] stood at 28%; in assay [2] it was 38%; in [3] it was 37%.
On to `Oc1ncnc2[nH]ncc12`, for which, in assay [4], the Activity was 86%.
As to `Cc1ccc(C)c(OCCCC(C)(C)C(=O)O)c1` [GEMFIBROZIL], the Activity in the assay with Rattus norvegicus [5] was found to be 31%; in the assay with Rattus norvegicus [6] it was 24%; in the assay with Rattus norvegicus [7], 36%; in the assay on Rattus norvegicus [8], 35%.
Regarding `OC[C@@H](O)[C@@H](O)[C@H](O)[C@H](O)CO`, the Activity in assay [9] was determined as 48%.
Take `Cc1cc(=O)oc2c1ccc1c(OC(C)c3ccccc3)cccc12` (stereo not drawn): the Activity with Rattus norvegicus [5] amounted to 22%; in the assay with Rattus norvegicus [7], 23%; with Rattus norvegicus [8], 26%.
Turning to `Cc1cc(=O)oc2c1ccc1c(OCc3ccccc3)cccc12`, the Activity amounted to 28% with Rattus norvegicus [5]; 24% in the assay with Rattus norvegicus [10]; 40% in [1]; 18% in the assay on Rattus norvegicus [6]; 23% with Rattus norvegicus [11]; 26% in the assay with Rattus norvegicus [12]. In addition, the Activity was determined as 28% with Rattus norvegicus [7], 41% in assay [2], 38% in assay [3] and 29% in the assay on Rattus norvegicus [8].
Regarding `Cc1c(C)c2c(c(C)c1O)CC[C@@](C)(CCC[C@H](C)CCC[C@H](C)CCCC(C)C)O2`, the Activity in [13] was 45%.
